Measurements: publication PMC7465040, “Cytotoxic and Anti-Plasmodial Activities of Stephania dielsiana Y.C. Wu Extracts and the Isolated Compounds” (Molecules, 2020)
Where two headings read alike, the source gives them in different places.

Tests used:
HeLa = test: SRB cell proliferation assay, HeLa; format: cell-based, human; details: for IC50: 72 h, Table 2A, SRB, read-out: IC50 (μM ± SD) HeLa
Description: (§1) In vitro anticancer study: The in vitro anti-proliferative tests were carried out as described previously, using aliquots of the cell lines used therein. Briefly, HeLa, MDA-MB-231 and MDA-MB-468, MCF7, and 184B5 and MCF 10A cell lines were purchased from ATCC. The identity of the cell lines presented in this study were verified by short tandem repeat profiling by Genetica DNA Laboratories (www.celllineauthentication.com) (April 8, 2015). MCF10A was grown in DMEM F12 medium supplemented with 0.02 μg/mL epidermal growth factor, 10% FBS, 10 μg/mL insulin and […] hydrocortisone. MDA-MB-468 were grown in DMEM supplemented with 10% FBS and antibiotics cocktail (100 μg/mL streptomycin, 100 units/mL penicillin and 250 ng/mL amphotericin B). SRB cell proliferation assays were carried out as previously described, with some minor modifications. The concentration range for all tested cell lines were from 100–0.39 μg/mL for extracts and 100–0.39 μM for pure compounds. […] All experiments were carried out at least twice.

MDA-MB-231 = test: SRB cell proliferation assay, MDA-MB-231; format: cell-based, human
Description: as §1

MDA-MB-468 = test: SRB cell proliferation assay, MDA-MB-468; format: cell-based, human
Description: as §1

MCF7 = test: SRB cell proliferation assay, MCF7; format: cell-based, human
Description: as §1

184B5 = test: SRB cell proliferation assay, 184B5 non-cancer cells; format: cell-based, human; details: for IC50: Homo sapiens, 184B5, read-out: IC50 (μM ± SD) 184B5
Description: as §1

MCF 10A = test: SRB cell proliferation assay, MCF10A non-cancer cells; format: cell-based; details: Homo sapiens, read-out: IC50 (μM ± SD) MCF 10A
Description: as §1

[1] = test system: chloroquine-susceptible 3D7 P. falciparum strain; test: In vitro anti-plasmodial assay (HRP2 ELISA), 3D7; format: cell-based, Plasmodium falciparum; details: for IC50: 72 h, HRP2 ELISA, mean of five experiments, read-out: IC50 (μM ± SD) 3D7
Description: (§2) Parasites were grown in A-positive human blood (Etablissement Français du Sang, Marseille, France) under controlled atmospheric conditions that consisted of 10% O2, 5% CO2, and 85% N2 at 37 °C with a humidity of 95%.
(§3) In vitro anti-plasmodial assay: The two P. falciparum strains 3D7 and W2 were synchronized twice with sorbitol before use. The clonality of these strains was verified both in our laboratory and in an independent laboratory from the Worldwide Anti-malarial Resistance Network (WWARN) by PCR genotyping of the polymorphic genetic markers msp1 and msp2 and microsatellite loci. The compounds were re-suspended in methanol or DMSO 5% (v/v) and then diluted in methanol to obtain final concentrations ranging from 0.008 to 500 μg/mL (final concentration of 0.5% of methanol or DMSO). […] The plates were incubated for 72 h at 37 °C in controlled atmospheric conditions 5% CO2, 10% O2, and […]. After thawing the plates, haemolysed cultures were homogenized by vortexing the plates. Both the success of the drug susceptibility assay and the appropriate volume of haemolysed culture to use for each assay were determined for each clinical isolate during a preliminary HRP2 ELISA. Both the pre-test and subsequent ELISA assays were performed using a commercial kit (Malaria Ag Celisa, ref KM2159, Cellabs PTY LTD, Brookvale, Australia) according to the manufacturer’s recommendation. The optical density (OD) of each sample was measured with a spectrophotometer (Safire 2, Tecan, Lyon, France). […] The anti-plasmodial in vitro assay was performed five times for each product. The IC50 values represented the mean value calculated from five experiments. According to Hout, a selectivity index (SI) was based on the ratio between anti-parasitic and cytotoxic activities. In the case of our study, a SI was calculated between non-tumorigenic cell line 184B5 and parasites 3D7 or W2 and/or MCF10A and these two parasites.

Aurora B = target: T1, Aurora B (Homo sapiens, UniProt Q96GD4); test: In vitro kinase assay (ADP-Glo), Aurora B; format: biochemical; details: ± standard deviation, n = 2
T1 construct: purchased Promega
Description: In vitro kinase assay: The Aurora A and B kinase assays were carried out using the Promega ADP-Glo based Kinase Activity Profiling system. The protocols for the Aurora A/(Myelin Basic Protein (MBP) and Aurora B/MBP assay kits were according to those recommended by the suppliers. The concentration range used was from 20 μM–39.1 nM in 384-well plates. The luminescent output from the kinase assay was read on a Biotek Synergy H4 plate reader.

[2] = test system: HeLa, MDA-MB231, MDA-MB-468, MCF7, 184B5 and MCF10A cell lines; test: SRB cell proliferation assay, whole panel of cell lines; format: cell-based, human; details: Homo sapiens; cancer and non-cancer cell lines; read-out: IC50 values, range over the cell lines examined
Description: as §1

[3] = test system: Plasmodium falciparum 3D7 and W2 strains; test: In vitro anti-plasmodial assay, both strains; format: cell-based
Description: as §2, §3

MDA-MB-231 cells = test: Annexin V staining / IncuCyte apoptosis and proliferation assay; format: cell-based, human
Description: Annexin V staining: Cell death mechanism and cell proliferation assays were analysed using the IncuCyte Apoptosis Assay method using the Annexin V Green reagent (Essen Biosciences, Ann Arbor, MI, USA) and the IncuCyte S3 and IncuCyte ZOOM software (Version 2018B, Bohemia, NY, USA) according to supplier’s protocol. Statistical analysis was carried out in Graph Pad Prism 5. All experiments were carried out at least twice.

T1 sequence (Q96GD4 whole entry): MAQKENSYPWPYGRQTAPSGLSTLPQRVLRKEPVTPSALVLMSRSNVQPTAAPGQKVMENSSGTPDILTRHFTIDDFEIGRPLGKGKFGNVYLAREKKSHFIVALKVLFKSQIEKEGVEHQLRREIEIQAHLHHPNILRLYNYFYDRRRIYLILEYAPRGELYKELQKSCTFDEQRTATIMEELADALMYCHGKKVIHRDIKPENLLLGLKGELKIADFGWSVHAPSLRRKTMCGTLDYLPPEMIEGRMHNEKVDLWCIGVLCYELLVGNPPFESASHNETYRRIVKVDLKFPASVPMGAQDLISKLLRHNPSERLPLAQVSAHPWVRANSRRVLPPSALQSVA

COc1cccc2c1C(=O)c1nccc3cc4c(c-2c13)OCO4 [Oxostephanine 1, oxostephanine]
IC50 (HeLa; Homo sapiens, HeLa): 1.73 µM | IC50 (HeLa): 1.76 ± 0.2 µM | Selectivity index (SI) 184B5 versus HeLa (HeLa; Table 2B, non-cancer 184B5 vs cancer HeLa): 0.94 | Selectivity index (SI) MCF10A versus HeLa (HeLa; Table 2B, non-cancer MCF10A vs cancer HeLa): 1.40 | Increase in effectiveness compared with stephanine (3), HeLa (HeLa; ratio of IC50): 2 fold | IC50 (MDA-MB-231; Homo sapiens, MDA-MB-231, Table 2A, SRB, 72 h, read-out: IC50 (μM ± SD) MDA-MB-231): 2.67 ± 0.29 µM | Selectivity index (SI) 184B5 versus MDA-MB-231 (MDA-MB-231; Table 2B, non-cancer 184B5 vs cancer MDA-MB-231): 0.62 | Selectivity index (SI) MCF10A versus MDA-MB-231 (MDA-MB-231; Table 2B, non-cancer MCF10A vs cancer MDA-MB-231): 0.93 | IC50 (MDA-MB-468; Homo sapiens, MDA-MB-468, Table 2A, SRB, 72 h, read-out: IC50 (μM ± SD) MDA-MB-468): 2.26 ± 0.54 µM | Selectivity index (SI) 184B5 versus MDA-MB-468 (MDA-MB-468; Table 2B, non-cancer 184B5 vs cancer MDA-MB-468): 0.73 | Selectivity index (SI) MCF10A versus MDA-MB-468 (MDA-MB-468; Table 2B, non-cancer MCF10A vs cancer MDA-MB-468): 1.10 | IC50 (MCF7; Homo sapiens, MCF7, Table 2A, SRB, 72 h, read-out: IC50 (μM ± SD) MCF7): 4.35 ± 1.2 µM | Selectivity index (SI) 184B5 versus MCF7 (MCF7; Table 2B, non-cancer 184B5 vs cancer MCF7): 0.38 | Selectivity index (SI) MCF10A versus MCF7 (MCF7; Table 2B, non-cancer MCF10A vs cancer MCF7): 0.57 | IC50 (184B5; Table 2A, SRB, 72 h): 1.66 ± 0.56 µM | IC50 (184B5; Table 3, non-cancer cell line): 1.66 ± 0.56 µM | Increase in effectiveness compared with stephanine (3), 184B5 (184B5; ratio of IC50): ~4 fold | IC50 (MCF 10A; Table 2A, SRB, 72 h): 2.49 ± 0.11 µM | IC50 (MCF 10A; Table 3, non-cancer cell line): 2.49 ± 0.11 µM | IC50 [1]: 63.9 ± 18.4 µM | IC50 ([1]; Plasmodium falciparum, 3D7, 72 h): 63.9 to 276 µM | SI 3D7 184B5 ([1]; Table 3, selectivity index between 184B5 and parasites 3D7): 0.026 | SI 3D7 MCF10A ([1]; Table 3, selectivity index between MCF10A and parasites 3D7): 0.039 | IC50 (Aurora B): 952 ± 467 nM | IC50 [2]: 1660 to 4350 nM | Anti-plasmodial activity against both 3D7 and W2 (in words) [3]: not active | Time to inhibition of proliferation (MDA-MB-231 cells; MDA-MB-231): ≤ 12 h | Apoptotic effect compared to camptothecin (MDA-MB-231 cells; MDA-MB-231, 10 μM, 1-way ANOVA p < 0.05): much stronger apoptotic effect | Time to start of apoptosis (Annexin V) (MDA-MB-231 cells; MDA-MB-231, post-treatment): ≤ 16 h
